Read-outs that look alike come from different tables or passages of the source.
Legend:
[1] = Cytotoxicity in mock infected MES-1 cells (MTT); assay type: cell-based; conditions: mock infected MES-1 cells, Table 3A
Protocol: (§1) To determine the cytotoxicity, cells were seeded at an initial density of 1×10^6 cells/mL in 96 well plates containing Minimum Essential Medium with Earles's salts (MEM-E), L-glutamine, 1 mM sodium pyruvate and 25 mg/L kanamycin, supplemented with 10% fetal bovine serum. Cell cultures were then incubated at 37° C. in a humidified 5% CO2 atmosphere in the absence or presence of serial dilutions of test compounds. Cell viability was determined by the MTT method.

[2] = tested on: HCoV; assay: microbe, parasite or virus in culture; assay type: cell-based, human coronavirus
[3] = Bronchoalveolar lavage and plasma PK / safety study in healthy participants; assay type: in vivo, human
Protocol: Two cohorts of 8 healthy participants have been enrolled to receive AT-527 at 275 or 550 mg BID orally for 2.5 days. At 4 and 12 h following the last dose, each participant (4/timepoint/cohort) underwent a single bronchoalveolar lavage (BAL) via a standard bronchoscope. Intensive plasma PK sampling was also performed after the last dose. BAL and plasma samples were assayed for AT-273. AT-273 levels in lung epithelial lining fluid (ELF) were calculated by correcting for urea levels in the BAL and the corresponding plasma samples. Safety assessments included adverse events (AEs), vital signs, electrocardiograms (ECGs), and standard laboratory tests.

[4] = tested on: mock infected BHK cells; assay: Cytotoxicity in mock infected BHK cells (MTT); assay type: cell-based, hamster; conditions: Table 2B; MTT, 3 days
Protocol: as §1
(§2) Uninfected cells in the presence of serially diluted compound were used to assess the cytotoxicity of compounds.

[5] = tested on: HCoV; assay: microbe, parasite or virus in culture; assay type: cell-based, human coronavirus; remark: listed apart in the source
[6] = Cytotoxicity in mock infected BHK cells (MTT); assay type: cell-based, hamster; conditions: hamster, mock infected BHK cells; Table 2A; MTT, 3 days
Protocol: as §1, §2

[7] = tested on: mock infected MES-1 cells; assay: Cytotoxicity in mock infected MES-1 cells (MTT); assay type: cell-based; conditions: Table 3B, 3 days
Protocol: as §1

[8] = unidentified human coronavirus, 72 h
[9] = AT-527 550 mg BID orally 2.5 days, 4 and 12 h after last dose
[10] = unidentified human coronavirus, BHK-21, 72 h

Compound `CC(C)OC(=O)[C@H](C)N[P@](=O)(OCC1O[C@@H](n2ccc(=O)[nH]c2=O)[C@](C)(F)[C@@H]1O)Oc1ccccc1` (stereo partly drawn) [drawing 248] has a CC50 at 3 days [1] of over 100 µM and an EC50 [2, 8] of over 100 µM.
`CCC(CC)COC(=O)[C@H](C)N[P@](=O)(OC[C@H]1O[C@@](C#N)(c2ccc3c(N)ncnn23)[C@H](O)[C@@H]1O)Oc1ccccc1` [drawing 251] showed a CC50 at 3 days [1] of over 100 µM and an EC50 [2, 8] of 6 µM.
For `C[C@@]1(F)[C@H](O)[C@@H](CO)O[C@H]1n1cnc2c(=O)[nH]c(N)nc21` [AT-273], the “Mean AT-273 level in lung ELF” value [3, 9] was at least 0.5 µM, the “Mean AT-273 level in plasma” value [3, 9] was at least 0.5 µM and the “correlation of ELF and plasma levels (r)” value ([3]; P<0.001) was 0.86.
`CC(C)[C@H](N)C(=O)O[C@@H]1[C@@H](CO)O[C@@H](n2ccc(N)nc2=O)[C@]1(C)O` [drawing 245] showed a CC50 [4] of over 100 µM.
`CC(C)(CO)C(=O)SCCOP(=O)(NCc1ccccc1)OC[C@H]1O[C@@H](n2cnc3c(=O)[nH]c(N)nc32)[C@](C)(O)[C@@H]1O` (stereo partly drawn) [drawing 243] showed an EC50 [5] of 1.9 µM and a CC50 [4] of 65 µM.
In the case of `CCC(CC)COC(=O)[C@H](C)N[P@](=O)(OC[C@H]1O[C@@](C#N)(c2ccc3c(N)ncnn23)[C@H](O)[C@@H]1O)Oc1ccccc1` [drawing 244], the EC50 [5] is reported as 7 µM and the CC50 [4] is reported as over 100 µM.
Compound `CNc1nc(N)nc2c1ncn2[C@@H]1O[C@H](CO[P@@](=O)(N[C@@H](C)C(=O)OC(C)C)Oc2ccccc2)[C@@H](O)[C@@]1(C)F` [drawing 239] has an EC50 [5] of 2 µM and a CC50 [4] of over 100 µM.
In the case of `CNc1nc(N)nc2c1ncn2[C@@H]1O[C@H](CO[P@](=O)(N[C@@H](C)C(=O)OC(C)C)Oc2ccccc2)[C@@H](O)[C@@]1(C)F` [drawing 240], the EC50 [5] is reported as 2.9 µM and the CC50 [4] is reported as over 100 µM.
`CC(C)[C@H](N)C(=O)O[C@@H]1[C@@H](CO)O[C@@H](n2ccc(N)nc2=O)[C@]1(C)O` [drawing 252] showed a CC50 at 3 days [1] of over 100 µM and an EC50 [2, 8] of over 100 µM.
With `CC(C)[C@H](N)C(=O)O[C@@H]1[C@@H](CO)O[C@@H](n2ccc(N)nc2=O)[C@]1(C)O` [drawing 238] the EC50 [5, 10] was over 100 µM and the CC50 at 3 days [6] was over 100 µM.
With `CC(C)OC(=O)[C@H](C)N[P@](=O)(OCC1O[C@@H](n2ccc(=O)[nH]c2=O)[C@](C)(F)[C@@H]1O)Oc1ccccc1` (stereo partly drawn) [drawing 234] the EC50 [5, 10] was over 100 µM and the CC50 at 3 days [6] was over 100 µM.
With `CC(C)(CO)C(=O)SCCOP(=O)(NCc1ccccc1)OC[C@H]1O[C@@H](n2cnc3c(=O)[nH]c(N)nc32)[C@](C)(O)[C@@H]1O` (stereo partly drawn) [drawing 257] the CC50 [7] was 82 µM and the EC50 [2] was 1.7 µM.
`CNc1nc(N)nc2c1ncn2[C@@H]1O[C@H](CO[P@@](=O)(N[C@@H](C)C(=O)OC(C)C)Oc2ccccc2)[C@@H](O)[C@@]1(C)F` [drawing 253] gave a CC50 [7] of over 100 µM and an EC50 [2] of 2 µM.
In the case of `CNc1nc(N)nc2c1ncn2[C@@H]1O[C@H](CO[P@](=O)(N[C@@H](C)C(=O)OC(C)C)Oc2ccccc2)[C@@H](O)[C@@]1(C)F` [drawing 247], the CC50 at 3 days [1] is reported as over 100 µM and the EC50 [2, 8] is reported as 2 µM.
`CNc1nc(N)nc2c1ncn2[C@@H]1O[C@H](CO[P@@](=O)(N[C@@H](C)C(=O)OC(C)C)Oc2ccccc2)[C@@H](O)[C@@]1(C)F` [drawing 246] showed a CC50 at 3 days [1] of over 100 µM and an EC50 [2, 8] of 1.6 µM.
